# Test results taken from patent US10300065B2, “Method of treating or prevention of atherothrombotic events in patients with history of myocardial infarction” (ASTRAZENECA AB, priority 2015, dated 2019).
# Tested on: patients with a history of myocardial infarction
# Test: PEGASUS-TIMI 54 trial, efficacy endpoints (intention-to-treat / full analysis set)
# Format: in vivo, human
# Conditions: for Stent thrombosis: KM %: at 36 months; for Composite of CV Death/MI/Stroke, landmark: KM % at 24 months: cumulative from day 361 to day 720; for Composite of CV Death/MI/Stroke, landmark: KM % at 36 months: cumulative from day 361 to day 1080; for Hospitalization for Unstable Angina: (%) / Transient Ischemic Attack: (%) / Urgent Coronary Revascularization for Unstable Angina: (%): at 3 years; for ischemic events prevented if 10,000 patients were started on treatment versus placebo: intention-to-treat data
# From the text: The PEGASUS-TIMI 54 trial (also referred to as the PEGASUS trial or PEGASUS study herein) was a randomized, double-blind, placebo-controlled multinational clinical trial that enrolled over 21,000 patients at 1,161 sites in 31 countries. The protocol was approved by the relevant ethics committees at all participating sites. In the U.S., the PEGASUS trial was assigned a ClinicalTrials.gov number of NCT01225562.
# Patients could be randomized regardless of their prior adenosine diphosphate (ADP) receptor blocker therapy or a lapse in therapy.
# Randomization was performed using a central computerized telephone or web based system, and allocation was double-blind.
# All patients enrolled in the PEGASUS trial were instructed to take open label aspirin at a dose of 75 to 150 mg daily.
# A total of 1360 primary endpoint events would be required to provide approximately 90% power to detect a 20% relative risk reduction with the 90 mg twice daily dose and approximately 83% power to detect a 19% relative risk reduction with the 60 mg twice daily dose when each dose was compared individually with placebo. The primary efficacy analysis was conducted on an intention-to-treat basis, with each of the two doses individually compared to placebo, as a time to event analysis from randomization to the first occurrence of any element of the primary composite endpoint: cardiovascular death, myocardial infarction, or stroke. […] An exploratory analysis of both doses combined compared with placebo was prespecified.
# [1] = 60 mg bd, 5695 patients with a coronary stent
# [2] = 60 mg bid vs. placebo (N = 6958)
# [3] = 90 mg bd, 5651 patients with a coronary stent
# [4] = 90 mg bid vs. placebo (N = 6988)
structure (smiles),measurement,setting,value
"CCCSc1nc(N[C@@H]2C[C@H]2c2ccc(F)c(F)c2)c2nnn([C@@H]3C[C@H](OCCO)[C@@H](O)[C@H]3O)c2n1 [Ticagrelor, (1S,2S,3R,5S)-3-[7-{[(1R,2S)-2-(3,4-difluorophenyl)cyclopropyl]amino}-5-(propylthio)-3H-[1,2,3]-triazolo[4,5-d]pyrimidin-3-yl]-5-(2-hydroxyethoxy)cyclopentane-1,2-diol]",Time to first stent thrombosis: HR,60 mg bd vs placebo,0.82
same,"Composite of CV Death/MI/Stroke, landmark: KM % at 12 months","60 mg bd, 1-360 days",2.7%
same,"Composite of CV Death/MI/Stroke, landmark: Patients with events","60 mg bd, 1-360 days",189
same,"Composite of CV Death/MI/Stroke, landmark: Patients with events (%)","60 mg bd, 1-360 days",(2.7%)
same,Stent thrombosis: Patients (%) with events,[1],(0.7%)
same,Stent thrombosis: Patients with events,[1],41
same,"Composite of CV Death/MI/Stroke, landmark: Patients with events","60 mg bd, 361 days or more",298
same,"Composite of CV Death/MI/Stroke, landmark: Patients with events (%)","60 mg bd, 361 days or more",(4.4%)
same,Stent thrombosis: KM %,60 mg bd,0.8%
same,"Composite of CV Death/MI/Stroke, landmark: KM % at 24 months",60 mg bd,2.7%
same,"Composite of CV Death/MI/Stroke, landmark: KM % at 36 months",60 mg bd,5.2%
same,MI: ARR (%),60 mg bid,0.72%
same,MI: NNT,60 mg bid,139
same,Stroke: ARR (%),60 mg bid,0.47%
same,Stroke: NNT,60 mg bid,213
same,All Stroke: n,60 mg bid (N = 7045),91
same,Cardiovascular Death or Myocardial infarction: 3-year Kaplan-Meier estimate,60 mg bid (N = 7045),(6.77) %
same,Cardiovascular Death or Myocardial infarction: n,60 mg bid (N = 7045),422
same,"Cardiovascular Death, Myocardial infarction, or Stroke: 3-year Kaplan-Meier estimate",60 mg bid (N = 7045),7.77%
same,"Cardiovascular Death, Myocardial infarction, or Stroke: n",60 mg bid (N = 7045),487
same,Cardiovascular Death: n,60 mg bid (N = 7045),174
same,Coronary Heart Disease Death or Myocardial infarction: 3-year Kaplan-Meier estimate,60 mg bid (N = 7045),(5.57) %
same,Coronary Heart Disease Death or Myocardial infarction: n,60 mg bid (N = 7045),360
same,"Coronary Heart Disease Death, Myocardial infarction, or Stroke: 3-year Kaplan-Meier estimate",60 mg bid (N = 7045),(7.09) %
same,"Coronary Heart Disease Death, Myocardial infarction, or Stroke: n",60 mg bid (N = 7045),445
same,Coronary Heart Disease Death: 3-year Kaplan-Meier estimate,60 mg bid (N = 7045),(1.72) %
same,Coronary Heart Disease Death: n,60 mg bid (N = 7045),106
same,Death from any cause: n,60 mg bid (N = 7045),289
same,Hospitalization for Unstable Angina: n,60 mg bid (N = 7045),39
same,Ischemic Stroke: 3-year Kaplan-Meier estimate,60 mg bid (N = 7045),(1.28) %
same,Ischemic Stroke: n,60 mg bid (N = 7045),78
same,Myocardial infarction as first-occurring component of the composite: n (patients with event),60 mg bid (N = 7045),283
same,Myocardial infarction: n,60 mg bid (N = 7045),285
same,Stroke as first-occurring component of the composite: n (patients with event),60 mg bid (N = 7045),88
same,Transient Ischemic Attack: n,60 mg bid (N = 7045),17
same,Urgent Coronary Revascularization for Unstable Angina: n,60 mg bid (N = 7045),62
same,Hospitalization for Unstable Angina: (%),60 mg bid (N = 7045),(0.61) %
same,Transient Ischemic Attack: (%),60 mg bid (N = 7045),(0.27) %
same,Urgent Coronary Revascularization for Unstable Angina: (%),60 mg bid (N = 7045),(0.95) %
same,Cardiovascular Death or Myocardial infarction: HR,60 mg bid vs Placebo,0.85
same,"Cardiovascular Death, Myocardial infarction, or Stroke: HR",60 mg bid vs Placebo,0.84
same,Cardiovascular Death: HR,60 mg bid vs Placebo,0.83
same,Coronary Heart Disease Death or Myocardial infarction: HR,60 mg bid vs Placebo,0.84
same,"Coronary Heart Disease Death, Myocardial infarction, or Stroke: HR",60 mg bid vs Placebo,0.83
same,Coronary Heart Disease Death: HR,60 mg bid vs Placebo,0.80
same,Coronary stent thrombosis: RRR,60 mg bid vs Placebo,18%
same,Death from any cause: HR,60 mg bid vs Placebo,0.89
same,Hospitalization for Unstable Angina: HR,60 mg bid vs Placebo,1.05
same,Ischemic Stroke: HR,60 mg bid vs Placebo,0.76
same,Transient Ischemic Attack: HR,60 mg bid vs Placebo,1.00
same,Urgent Coronary Revascularization for Unstable Angina: HR,60 mg bid vs Placebo,0.82
same,"coronary heart disease death, myocardial infarction, or stroke: RRR",60 mg bid vs Placebo,17%
same,"Irreversible harm (CV death, MI, stroke, ICH, or fatal bleeding): HR",[2],0.86
same,"Irreversible harm (CV death, MI, stroke, ICH, or fatal bleeding): RRR (%)",[2],14%
same,"Net clinical benefit (CV death, MI, stroke, or TIMI major bleeding): HR",[2],0.95
same,"Net clinical benefit (CV death, MI, stroke, or TIMI major bleeding): RRR (%)",[2],5%
same,"ischemic events prevented if 10,000 patients were started on treatment versus placebo",60 mg bid,42
same,Time to first stent thrombosis: HR,90 mg bd vs placebo,0.64
same,"Composite of CV Death/MI/Stroke, landmark: KM % at 12 months","90 mg bd, 1-360 days",2.8%
same,"Composite of CV Death/MI/Stroke, landmark: Patients with events","90 mg bd, 1-360 days",198
same,"Composite of CV Death/MI/Stroke, landmark: Patients with events (%)","90 mg bd, 1-360 days",(2.8%)
same,Stent thrombosis: Patients (%) with events,[3],(0.6%)
same,Stent thrombosis: Patients with events,[3],32
same,"Composite of CV Death/MI/Stroke, landmark: Patients with events","90 mg bd, 361 days or more",295
same,"Composite of CV Death/MI/Stroke, landmark: Patients with events (%)","90 mg bd, 361 days or more",(4.4%)
same,Stent thrombosis: KM %,90 mg bd,0.6%
same,"Composite of CV Death/MI/Stroke, landmark: KM % at 24 months",90 mg bd,2.4%
same,"Composite of CV Death/MI/Stroke, landmark: KM % at 36 months",90 mg bd,5.2%
same,MI: ARR (%),90 mg bid,0.85%
same,MI: NNT,90 mg bid,118
same,Stroke: ARR (%),90 mg bid,0.33%
same,Stroke: NNT,90 mg bid,303
same,All Stroke: 3-year Kaplan-Meier estimate,90 mg bid (N = 7050),(1.61) %
same,All Stroke: n,90 mg bid (N = 7050),100
same,Cardiovascular Death or Myocardial infarction: 3-year Kaplan-Meier estimate,90 mg bid (N = 7050),(6.79) %
same,Cardiovascular Death or Myocardial infarction: n,90 mg bid (N = 7050),424
same,"Cardiovascular Death, Myocardial infarction, or Stroke: 3-year Kaplan-Meier estimate",90 mg bid (N = 7050),(7.85) %
same,"Cardiovascular Death, Myocardial infarction, or Stroke: n",90 mg bid (N = 7050),493
same,Cardiovascular Death: 3-year Kaplan-Meier estimate,90 mg bid (N = 7050),(2.94) %
same,Cardiovascular Death: n,90 mg bid (N = 7050),182
same,Coronary Heart Disease Death or Myocardial infarction: 3-year Kaplan-Meier estimate,90 mg bid (N = 7050),(5.59) %
same,Coronary Heart Disease Death or Myocardial infarction: n,90 mg bid (N = 7050),350
same,"Coronary Heart Disease Death, Myocardial infarction, or Stroke: 3-year Kaplan-Meier estimate",90 mg bid (N = 7050),(6.99) %
same,"Coronary Heart Disease Death, Myocardial infarction, or Stroke: n",90 mg bid (N = 7050),438
same,Coronary Heart Disease Death: 3-year Kaplan-Meier estimate,90 mg bid (N = 7050),(1.53) %
same,Coronary Heart Disease Death: n,90 mg bid (N = 7050),97
same,Death from any cause: 3-year Kaplan-Meier estimate,90 mg bid (N = 7050),(5.15) %
same,Death from any cause: n,90 mg bid (N = 7050),326
same,Hospitalization for Unstable Angina: n,90 mg bid (N = 7050),33
same,Ischemic Stroke: 3-year Kaplan-Meier estimate,90 mg bid (N = 7050),(1.41) %
same,Ischemic Stroke: n,90 mg bid (N = 7050),88
same,Myocardial infarction: 3-year Kaplan-Meier estimate,90 mg bid (N = 7050),(4.40) %
same,Myocardial infarction: n,90 mg bid (N = 7050),275
same,Transient Ischemic Attack: n,90 mg bid (N = 7050),17
same,Urgent Coronary Revascularization for Unstable Angina: n,90 mg bid (N = 7050),74
same,Hospitalization for Unstable Angina: (%),90 mg bid (N = 7050),(0.50) %
same,Transient Ischemic Attack: (%),90 mg bid (N = 7050),(0.27) %
same,Urgent Coronary Revascularization for Unstable Angina: (%),90 mg bid (N = 7050),(1.16) %
same,"Cardiovascular Death, Myocardial infarction, or Stroke: 3-year Kaplan-Meier estimate","90 mg bid (N = 7050), listed as ticagrelor",7.85%
same,All Stroke: HR,90 mg bid vs Placebo,0.82
same,Cardiovascular Death or Myocardial infarction: HR,90 mg bid vs Placebo,0.85
same,"Cardiovascular Death, Myocardial infarction, or Stroke: HR",90 mg bid vs Placebo,0.85
same,Cardiovascular Death: HR,90 mg bid vs Placebo,0.87
same,Coronary Heart Disease Death or Myocardial infarction: HR,90 mg bid vs Placebo,0.81
same,"Coronary Heart Disease Death, Myocardial infarction, or Stroke: HR",90 mg bid vs Placebo,0.82
same,Coronary Heart Disease Death: HR,90 mg bid vs Placebo,0.73
same,Coronary stent thrombosis: RRR,90 mg bid vs Placebo,36%
same,Death from any cause: HR,90 mg bid vs Placebo,1.00
same,Hospitalization for Unstable Angina: HR,90 mg bid vs Placebo,0.89
same,Ischemic Stroke: HR,90 mg bid vs Placebo,0.85
same,Myocardial infarction: HR,90 mg bid vs Placebo,0.81
same,Transient Ischemic Attack: HR,90 mg bid vs Placebo,1.00
same,Urgent Coronary Revascularization for Unstable Angina: HR,90 mg bid vs Placebo,0.97
same,"coronary heart disease death, myocardial infarction, or stroke: RRR",90 mg bid vs Placebo,18%
same,"Irreversible harm (CV death, MI, stroke, ICH, or fatal bleeding): HR",[4],0.88
same,"Irreversible harm (CV death, MI, stroke, ICH, or fatal bleeding): RRR (%)",[4],12%
same,"Net clinical benefit (CV death, MI, stroke, or TIMI major bleeding): HR",[4],1.00
same,"Net clinical benefit (CV death, MI, stroke, or TIMI major bleeding): RRR (%)",[4],0%
same,"ischemic events prevented if 10,000 patients were started on treatment versus placebo",90 mg bid,40
